Source: patent US5510346A, “4-heteroaryl-1,3-benzodiazepines and 2-substituted-gamma-(heteroaryl)benzeneethanamines” (Hoechst Marion Roussel, Inc., priority 1991, dated 1996)

Tests used:
[1] = test system: N-methyl-D-aspartic acid (NMDA)-induced seizures; test: N-Methyl-D,L-Aspartic Acid Induced Seizure Assay (NMDA protection); assay type: in vivo; settings: male Swiss Webster mice, ip; N-methyl-D,L-aspartic acid 350 mg/kg challenge; absence of clonic seizures during 30 minute observation
Protocol: In this assay, male Swiss Webster mice (Charles River), 18-25 grams are used. Animals are ordered at 33 to 36 days of age and can be used for 8 days after arrival. They are housed for at least 24 hours in a climate controlled animal colony with food and water available ad libimm. On the day of testing, animals are brought to the laboratory and randomly assigned to groups. N-Methyl-D,L-aspartic acid (350 mg) is dissolved in 10 ml of saline and mixed thoroughly with a homogenizer for 1-2 minutes. Test compounds are prepared in distilled water and, if insoluable, a suitable surfactant is added. For a primary screen the test compound is administered at 60 mg/kg, ip (10 ml/kg), to groups of ten mice, 30 minutes prior to challenge with N-methyl-D,L-aspartic acid (350 mg/kg, […]). After N-Methyl-D,L-aspartic acid administration animals are placed individually in clear plastic cyclinders (12"×5.5"×1/4") and then observed for clonic seizures. N-methyl-D,L-aspartic acid will produce clonic seizures, and sometimes tonic seizures and death, in vehicle control animals.
A clonic convulsion is defined as a single episode of clonic spasms of a least a 3 second duration. […]
Data is calculated by the method of J. T. Litchfield, Jr. and F. Wileoxon. […]
The normalized percent protection is calculated using the following formula: [formula]

[2] = test system: Geller Conflict Paradigm in Rats; test: Geller Conflict Paradigm in Rats (anxiolytic activity); assay type: in vivo; settings: i.p.
Description: The intraperitoneal (i.p.) dosages at which the following compounds show anxiolytic activity are: […]

2-Amino-α-(3-methyl-3-thienyl)benzeneethanamine
NMDA Protection ED50 [1]: 19.0 mg/kg

CCNC(Cc1ccccc1N)c1sccc1C.Cl.Cl (stereo not drawn) [2-Amino-N-ethyl-α-(3-methyl-2-thienyl)benzeneethanamine dihydrochloride]
Anti-Conflict Response % Change Compared to Control ([2]; 1 mg/kg): +100% | Anti-Conflict Response % Change Compared to Control ([2]; 5 mg/kg): +70%

CN1C(=O)CN=C(c2ccccc2)c2cc(Cl)ccc21 [Diazepam, reference compound]
Anti-Conflict Response % Change Compared to Control ([2]; 10 mg/kg): +180% | Anti-Conflict Response % Change Compared to Control ([2]; 20 mg/kg): +630%
